Results from US11993581B2, “Pyridazine compounds for inhibiting Nav1.8” (Lieber Institute, Inc., priority 2018, dated 2024).

target: T1, human Nav1.8 (hNav1.8) ion channel (Homo sapiens, UniProt Q9Y5Y9); assay: Nav1.8 inhibition, estimated IC50 (Nav1.8 fluorescence, PatchXpress and/or IonFlux HT automated patch clamp assay); format: cell-based; details: HEK293 cells stably expressing hNav1.8; determined using one or more of the described methods; read-out: Activity range (estimated IC50)
T1 construct: expressed in transfected cells
T1 sequence (Q9Y5Y9 whole entry): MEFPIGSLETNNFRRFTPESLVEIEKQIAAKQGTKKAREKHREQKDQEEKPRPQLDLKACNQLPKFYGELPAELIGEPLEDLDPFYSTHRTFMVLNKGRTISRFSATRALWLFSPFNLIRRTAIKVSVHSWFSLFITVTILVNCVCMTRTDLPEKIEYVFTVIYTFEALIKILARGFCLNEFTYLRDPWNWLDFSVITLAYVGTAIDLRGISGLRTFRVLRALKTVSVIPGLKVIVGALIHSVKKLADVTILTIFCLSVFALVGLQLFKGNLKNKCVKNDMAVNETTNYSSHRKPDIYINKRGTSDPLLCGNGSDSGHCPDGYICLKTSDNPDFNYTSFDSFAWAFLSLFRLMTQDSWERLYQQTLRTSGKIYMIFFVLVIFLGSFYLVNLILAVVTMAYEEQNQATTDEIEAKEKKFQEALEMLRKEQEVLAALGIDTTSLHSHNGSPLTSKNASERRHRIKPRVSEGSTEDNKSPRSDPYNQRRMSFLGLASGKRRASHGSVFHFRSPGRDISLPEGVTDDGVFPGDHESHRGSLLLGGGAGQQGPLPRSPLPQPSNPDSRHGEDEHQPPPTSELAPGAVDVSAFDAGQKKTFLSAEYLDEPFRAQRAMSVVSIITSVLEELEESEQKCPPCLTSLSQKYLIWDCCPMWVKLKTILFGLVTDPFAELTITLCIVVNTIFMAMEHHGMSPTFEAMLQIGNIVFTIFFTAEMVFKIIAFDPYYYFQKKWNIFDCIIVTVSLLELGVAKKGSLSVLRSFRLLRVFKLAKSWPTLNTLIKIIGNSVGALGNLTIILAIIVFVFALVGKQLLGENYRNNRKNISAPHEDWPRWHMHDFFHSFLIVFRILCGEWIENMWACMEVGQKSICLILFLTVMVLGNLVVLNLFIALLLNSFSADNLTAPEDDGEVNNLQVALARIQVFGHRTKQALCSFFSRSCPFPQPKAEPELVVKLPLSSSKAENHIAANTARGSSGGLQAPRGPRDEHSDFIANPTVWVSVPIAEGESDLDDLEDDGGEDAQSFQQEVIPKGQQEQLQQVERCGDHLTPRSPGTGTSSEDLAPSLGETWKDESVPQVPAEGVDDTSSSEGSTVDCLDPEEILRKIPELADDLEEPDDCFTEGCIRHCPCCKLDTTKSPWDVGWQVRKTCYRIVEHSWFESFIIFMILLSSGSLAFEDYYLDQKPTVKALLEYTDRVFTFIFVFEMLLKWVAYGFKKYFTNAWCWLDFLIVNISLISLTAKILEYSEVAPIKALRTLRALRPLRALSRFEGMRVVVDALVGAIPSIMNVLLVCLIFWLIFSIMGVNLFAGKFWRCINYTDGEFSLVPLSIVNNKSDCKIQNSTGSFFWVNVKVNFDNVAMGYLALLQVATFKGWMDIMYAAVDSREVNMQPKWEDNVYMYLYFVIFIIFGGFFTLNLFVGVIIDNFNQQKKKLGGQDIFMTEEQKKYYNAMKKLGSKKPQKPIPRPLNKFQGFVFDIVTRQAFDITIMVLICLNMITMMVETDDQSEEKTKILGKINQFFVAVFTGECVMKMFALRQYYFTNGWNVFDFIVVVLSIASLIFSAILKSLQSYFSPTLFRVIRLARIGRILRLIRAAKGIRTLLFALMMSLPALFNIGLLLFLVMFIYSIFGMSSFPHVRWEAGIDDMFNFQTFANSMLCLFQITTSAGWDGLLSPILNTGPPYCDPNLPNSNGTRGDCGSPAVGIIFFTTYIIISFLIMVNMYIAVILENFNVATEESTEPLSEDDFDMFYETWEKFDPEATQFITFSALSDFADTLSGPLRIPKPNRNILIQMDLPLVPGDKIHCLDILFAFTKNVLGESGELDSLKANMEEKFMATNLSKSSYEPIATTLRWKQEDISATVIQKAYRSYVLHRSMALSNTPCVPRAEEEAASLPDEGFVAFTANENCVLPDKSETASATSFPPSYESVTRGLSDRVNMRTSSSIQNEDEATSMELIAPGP
T1 sequence (Q07699 19-218 partner): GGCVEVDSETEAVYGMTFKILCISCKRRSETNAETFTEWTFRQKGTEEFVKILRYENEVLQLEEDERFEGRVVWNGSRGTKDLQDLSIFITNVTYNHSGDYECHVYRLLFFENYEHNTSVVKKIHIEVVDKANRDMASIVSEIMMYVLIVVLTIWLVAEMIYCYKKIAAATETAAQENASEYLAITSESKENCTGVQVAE
Protocol: The ability of pyridine carboxamide derivatives exemplified above to inhibit the Nav1.8 channel was determined using one or more of the methods described below.
HEK Nav1.8 β1/β2 Stably Expressing Cell Line
A HEK293 cell line stably expressing the human Nav1.8 (hNav1.8) ion channel with β1/β2 subunits was constructed. The cell line is suitable for IC50 determination in fluorescence and electrophysiological based assays. It is also suitable to conduct mechanism of action pharmacology studies in electrophysiological assays. HEK293 Nav1.8 cells are grown as adherent monolayers in DMEM/high glucose media, 10% fetal bovine serum, Na pyruvate (2 mM), Hepes (10 mM) with selection agents G418 (400 mg/L) and puromycin (0.5 mg/L) at 37 degrees C., 10% CO2.
Nav1.8 Fluorescence Inhibition Assay
Compounds were made up to or supplied as a 10-mM stock solution using DMSO as the vehicle. Concentration-response curves were generated using a Matrix multichannel pipettor. Compound source plates were made by diluting 10 mM compound stocks to create 500 μM (100×) solutions in DMSO in 96-well v-bottom plates. Compounds were then serially diluted in 100% DMSO to generate a 5 point, 4-fold dilution scheme dose response curve. 2 μL of the 100× dose response curves were then added to preincubation and stimulation assay plates. 100 μL of pre-incubation buffer and 200 μl of stimulation buffer was then added to the plates resulting in a final assay test concentration range of 5 μM to 0.02 μM with a final DMSO concentration of 1%.
On the day of assay, plates were washed to remove cell culture media using 2K EBSS buffer (135 mM NaCl, 2 mM KCl, 5 mM Glucose, 2 mM CaCl2, 1 mM MgCl2, 10 mM HEPES, pH 7.4). The Na-sensitive fluorescent dye, Asante Natrium Green-2 (ANG-2) was incubated for 60 min to allow equilibration and then washed with 2K EBSS. Plates were then transferred to a fluorescence plate reader (FLIPR™, Molecular Devices) for fluorescence measurement using an excitation wavelength of 490 nm and an emission wavelength of 565 nm. Compounds were pre-incubated for 5 min at final test concentration in the presence of ouabain (30 μM) to inhibit Na+ efflux through Na+/K+ exchanger. Following the pre-incubation phase, hNav1.8 channels were stimulated with 10 μM of the pyrethroid deltamethrin to prevent channel inactivation. The assay was run for 15 minutes with vehicle and 30 μM tetracaine serving as negative and positive controls, respectively. The peak change in fluorescence relative to negative and positive control wells was calculated and fit with a logistic equation to determine IC50.
PatchXpress Nav1.8 Inhibition Assay
HEK-Nav1.8 β1/β2 cells were recorded in whole cell patch-clamp using the PatchXpress automated patch clamp platforms (Molecular Devices). Cell suspensions were obtained by trypsinization of adherent monolayers, followed by gentle rocking for minimally 30 min. Compounds were prepared from 10 mM DMSO stocks.
Nav1.8 channel variants were evaluated using Protocol 1 in which cells were initially voltage clamped at a holding potential of −100 mV to maintain Nav1.8 in a closed resting state. After current amplitude becomes stable, the mid-point voltage of steady state inactivation was determined for each cell using a series of 5 sec conditioning steps to increasingly depolarized voltages (−100 to 0 mV) The holding potential was then reset to a voltage that produces ˜50% inactivation (Vhalf-set automatically via PatchXpress scripts) so that closed and inactivated channel inhibition could be assessed. Protocol 1 was run at a frequency of 0.1 Hz until current amplitude is steady (automatically determined by PatchXpress scripts). The effect of test reagent on Nav current amplitude was monitored using custom PatchXpress stability scripts which determines the timing of compound addition and washout.
Data were processed and analyzed using DataXpress 2.0 (Molecular Devices). […]

Q: How did the IC50 turn out when N#Cc1ccc(-c2cc(C(=O)NCc3ccccc3N3CCOCC3)cnn2)cc1 [Example 58, 6-(4-cyanophenyl)-N-[(2-morpholinophenyl)methyl]pyridazine-4-carboxamide] was run?
A: < 500 nM

Q: With Cc1ccnc(N2CCOCC2)c1CNC(=O)c1cnnc(-c2ccc(OC(F)(F)F)cc2)c1 [Example 59, N-[(4-methyl-2-morpholino-3-pyridyl)methyl]-6-[4-(trifluoromethoxy)phenyl]pyridazine-4-carboxamide] as the compound, how does the IC50 read?
A: < 500 nM

Q: With Cc1ccnc(N2CCOCC2)c1CNC(=O)c1cnnc(-c2ccc(Cl)cc2)c1 [Example 60, 6-(4-chlorophenyl)-N-[(4-methyl-2-morpholino-3-pyridyl)methyl]pyridazine-4-carboxamide] as the compound, how does the IC50 read?
A: < 500 nM
